# Measurements: patent publication US20250257064A1, “TRIFLUOROMETHYL-SUBSTITUTED SULFONAMIDE AS BCL-2-SELECTIVE INHIBITOR” (Chia Tai Tianqing Pharmaceutical Group Co., Ltd., priority 2018, published 2025)
# Assays:
# [1] = Pharmacokinetics in beagle dogs; format: in vivo; conditions: male, dog, plasma, po, intragastric 2.5 mg/kg
# Method: 4.2 Pharmacokinetics in Beagle Dogs
# 3 male beagle dogs weighing 9-12 kg were intragastrically administered with the test compounds at a dosage of 2.5 mg/kg after adaptive feeding for a period of time.
# The animals to be tested (male beagle dogs) were fasted for 12 h before administration and fed 4 h after administration, and water was freely drunk before, after and during the experiment.
# After intragastric administration, about 0.5 mL of blood was collected from forelimb vein at 0.25 h (15 min), 0.5 h (30 min), 1 h, 1.5 h, 2 h, 4 h, 6 h, 8 h, 10 h, 24 h, 30 h, 48 h and 72 h, and placed in an EDTA-K2 anticoagulation tube. Blood samples were transferred to a centrifuge within 30 min, and centrifuged at 4000 rpm for 10 min at 4° C. to separate the plasma. All plasma samples were collected and immediately stored at −20° C. for testing.
# 50 μL of the plasma sample to be tested was added with 300 μL of acetonitrile solution containing an internal standard (20 ng/mL diazepam), shaken and mixed well for 5 min, and centrifuged at 13,000 rpm for 10 min. 75 μL of supernatant was taken and diluted with 75 μL of ultrapure water. After being mixed well, 1 μL of the resulting sample was taken for LC/MS/MS determination, and a chromatogram was recorded.
# Oral exposure of the compounds disclosed herein was evaluated by in vivo pharmacokinetic experiments in beagle dogs.
# RS4;11 cells = assay: Inhibitory effect on proliferation of RS4;11 cells (CCK-8); format: cell-based, human; conditions: Homo sapiens, RS4-11, 72 h
# In short: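 RS4;11 cells were seeded at 1×10^5 cells/mL in RPMI with 5% FBS and incubated 24 h at 37° C, 5% CO2 before compound addition in duplicate. Inhibition was calculated against untreated and blank controls. IC50 came from a four-parameter fit of log concentration versus inhibition.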
smiles,measurement,setting,value
CC1(C)CCC(CN2CCN(c3ccc(C(=O)NS(=O)(=O)c4ccc(NC[C@H]5COCCO5)c([N+](=O)[O-])c4)c(Oc4cnc5[nH]ccc5c4)c3)CC2)=C(c2ccc(C(F)(F)F)cc2Cl)C1 [Compound 8-1],AUC(0-inf),[1],27700 ± 14200 ng·h/mL
same,Cmax,[1],1430 ± 769 ng/mL
same,MRT last,[1],17.2 ± 1.62 h
same,Tmax,[1],3.33 ± 1.16 h
same,AUC(0-t),[1]; read-out: AUC0-72 h,26300 ± 13600 ng·h/mL
same,half-life,[1]; read-out: T½ (converted),19.5 ± 1.64 h
"CC1(C)CCC(CN2CCN(c3ccc(C(=O)NS(=O)(=O)c4ccc(NCC5CCOCC5)c([N+](=O)[O-])c4)c(Oc4cnc5[nH]ccc5c4)c3)CC2)=C(c2ccc(C(F)(F)F)cc2Cl)C1 [Compound 1-1, 4-(4-{[2-(2-chloro-4-trifluoromethylphenyl)-4,4-dimethylcyclohex-1-enyl]methyl}-piperazin-1-yl)-N-({3-nitro-4-[(tetrahydro-2H-pyran-4-ylmethyl)amino]phenyl}sulfonyl)-2-(1H-pyrrolo[2,3-b]pyridin-5-yloxy)-benzamide]",IC50,RS4;11 cells,2.3 nM
